Assay results as given in the supplement of paper PMC5908809.

Experiments:
[1] = system: normal NK cells expanded with K562-aAPC; test: percent inhibition of viability; higher = more inhibition; conditions: 72 h, IL-2 2.5 ng/mL
Experimental: (§1)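 Drug sensitivity and resistance testing on K562-aAPC-expanded normal NK cells: 5 concentrations (10-fold steps over a 10,000-fold range), 72 h at 37 °C, viability by CellTiter-Glo normalised to DMSO and benzethonium chloride controls; DSS from the fitted curve.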

DERL-7 (IL-2 2.5 ng/mL) [2] = test: as above; conditions: 72 h
IMC-1 (IL-2 20 ng/mL) [3] = test: as above; conditions: 72 h
KAI3 (IL-2 2.5 ng/mL) [4] = test: as above; conditions: 72 h
KHYG-1 (IL-2 2.5 ng/mL) [5] = test: as above; conditions: 72 h
NK-92 (IL-2 2.5 ng/mL) [6] = test: as above; conditions: 72 h
NK-YS (IL-2 2.5 ng/mL) [7] = test: as above; conditions: 72 h
NKL (IL-2 2.5 ng/mL) [8] = test: as above; conditions: 72 h
SNK-6 (IL-2 2.5 ng/mL) [9] = test: as above; conditions: 72 h
YT (IL-2 2.5 ng/mL) [10] = test: as above; conditions: 72 h
[11] = system: normal primary NK cells, pool 1 (3 donors) (IL-2 2.5 ng/mL); test: as above; conditions: 72 h
[12] = system: normal primary NK cells, pool 1 (3 donors), resting (IL-2 0 ng/mL); test: as above; conditions: 72 h
[13] = system: normal primary NK cells, pool 2 (3 donors) (IL-2 2.5 ng/mL); test: as above; conditions: 72 h
[14] = system: normal primary NK cells, pool 3 (3 donors) (IL-2 2.5 ng/mL); test: as above; conditions: 72 h
[15] = system: normal NK cells expanded with K562-aAPC; test: drug sensitivity score (DSS) (DSS units); higher = more sensitive; extreme values may be limits of the assay; conditions: 72 h; IL-2 2.5 ng/mL
Experimental: as §1

DERL-7 (IL-2 2.5 ng/mL) [16] = test: as above; conditions: 72 h
IMC-1 (IL-2 20 ng/mL) [17] = test: as above; conditions: 72 h
KAI3 (IL-2 2.5 ng/mL) [18] = test: as above; conditions: 72 h
KHYG-1 (IL-2 2.5 ng/mL) [19] = test: as above; conditions: 72 h
NK-92 (IL-2 2.5 ng/mL) [20] = test: as above; conditions: 72 h
NK-YS (IL-2 2.5 ng/mL) [21] = test: as above; conditions: 72 h
NKL (IL-2 2.5 ng/mL) [22] = test: as above; conditions: 72 h
SNK-6 (IL-2 2.5 ng/mL) [23] = test: as above; conditions: 72 h
YT (IL-2 2.5 ng/mL) [24] = test: as above; conditions: 72 h
[25] = system: normal primary NK cells, pool 1 (3 donors) (IL-2 2.5 ng/mL); test: as above; conditions: 72 h
[26] = system: normal primary NK cells, pool 1 (3 donors), resting (IL-2 0 ng/mL); test: as above; conditions: 72 h
[27] = system: normal primary NK cells, pool 2 (3 donors) (IL-2 2.5 ng/mL); test: as above; conditions: 72 h
[28] = system: normal primary NK cells, pool 3 (3 donors) (IL-2 2.5 ng/mL); test: as above; conditions: 72 h

Nc1nc(OCc2cc(Br)cs2)c2[nH]cnc2n1 [Lomeguatrib] (max concentration tested 10000 nM)
percent inhibition of viability [%]
Conditions | 1 nM | 10 nM | 100 nM | 1000 nM | 10000 nM
DERL-7 (IL-2 2.5 ng/mL) [2] | 4.42 | 1.17 | 2.11 | 0.21 | 29.9
IMC-1 (IL-2 20 ng/mL) [3] | -11.5 | -6.71 | -6.4 | -6.2 | 8.26
KAI3 (IL-2 2.5 ng/mL) [4] | 3.07 | -2.1 | -3 | 0.64 | 24.2
KHYG-1 (IL-2 2.5 ng/mL) [5] | 1.34 | -3.62 | -7.2 | -3.96 | 7.46
NK-92 (IL-2 2.5 ng/mL) [6] | -11.6 | -17.5 | -5.85 | -7.63 | 3.77
NK-YS (IL-2 2.5 ng/mL) [7] | 1.57 | -2.53 | -4.74 | -3.26 | 12.7
NKL (IL-2 2.5 ng/mL) [8] | -4.89 | -6.45 | -9.35 | 8.52 | 51.3
SNK-6 (IL-2 2.5 ng/mL) [9] | -7.32 | 6.29 | -7.89 | 4 | 9.3
YT (IL-2 2.5 ng/mL) [10] | -3.67 | -6.22 | -3.85 | 0.11 | 14.3
[1] | -6.1 | -4.35 | -4.12 | -3.84 | 21
[11] | -4.41 | 4.97 | 9.83 | 16 | 26.1
[12] | 12.8 | 8.93 | 18.4 | 19.5 | 20.8
[13] | -5.64 | -7.78 | 3.47 | 3.5 | 14.1
[14] | 0.89 | -1.05 | 7.15 | 4.29 | 9.2

Conditions | drug sensitivity score
DERL-7 (IL-2 2.5 ng/mL) [16] | 1.33
IMC-1 (IL-2 20 ng/mL) [17] | 0
KAI3 (IL-2 2.5 ng/mL) [18] | 0.96
KHYG-1 (IL-2 2.5 ng/mL) [19] | 0
NK-92 (IL-2 2.5 ng/mL) [20] | 0
NK-YS (IL-2 2.5 ng/mL) [21] | 0.03
NKL (IL-2 2.5 ng/mL) [22] | 4.14
SNK-6 (IL-2 2.5 ng/mL) [23] | 0
YT (IL-2 2.5 ng/mL) [24] | 0.19
[15] | 0.49
[25] | 2.96
[26] | 0
[27] | 0.34
[28] | 0

CC[C@H](C)C(=O)O[C@H]1C[C@@H](C)C=C2C=C[C@H](C)[C@H](CC[C@@H]3C[C@@H](O)CC(=O)O3)[C@H]21 [Lovastatin] (max concentration tested 10000 nM)
percent inhibition of viability [%]
Conditions | 1 nM | 10 nM | 100 nM | 1000 nM | 10000 nM
DERL-7 (IL-2 2.5 ng/mL) [2] | 2.67 | -1.74 | 3.23 | -2.63 | 7.15
IMC-1 (IL-2 20 ng/mL) [3] | 0.36 | -4.93 | -3.87 | -8.19 | 5.39
KAI3 (IL-2 2.5 ng/mL) [4] | 0.53 | 3.49 | -3.97 | 0.77 | 14
KHYG-1 (IL-2 2.5 ng/mL) [5] | 0.32 | -1.28 | -1.4 | 5.79 | 9.85
NK-92 (IL-2 2.5 ng/mL) [6] | -12 | -4.31 | 2.92 | -2.72 | 4.38
NK-YS (IL-2 2.5 ng/mL) [7] | -0.66 | -1.57 | -0.61 | 9.14 | 57.5
NKL (IL-2 2.5 ng/mL) [8] | -8.92 | -7.04 | -16.3 | -3.47 | 50.5
SNK-6 (IL-2 2.5 ng/mL) [9] | 9.2 | 3.13 | 18.8 | 3.99 | -5.4
YT (IL-2 2.5 ng/mL) [10] | 1.08 | 0.01 | -2.08 | 1.47 | 15
[1] | 0.56 | -5.1 | -9.52 | -6.29 | -8.93
[11] | -9.05 | -11.9 | -5.92 | 4.69 | 0.82
[12] | -2.63 | -14.8 | -15 | 10.9 | 16
[13] | -9.06 | -2.92 | -2.71 | -5.88 | -6.36
[14] | -7.92 | -10.5 | -6.75 | -10.6 | -16

Conditions | drug sensitivity score
DERL-7 (IL-2 2.5 ng/mL) [16] | 0
IMC-1 (IL-2 20 ng/mL) [17] | 0
KAI3 (IL-2 2.5 ng/mL) [18] | 0.22
KHYG-1 (IL-2 2.5 ng/mL) [19] | 0
NK-92 (IL-2 2.5 ng/mL) [20] | 0
NK-YS (IL-2 2.5 ng/mL) [21] | 4.64
NKL (IL-2 2.5 ng/mL) [22] | 2.39
SNK-6 (IL-2 2.5 ng/mL) [23] | 0
YT (IL-2 2.5 ng/mL) [24] | 0.36
[15] | 0
[25] | 0
[26] | 1.12
[27] | 0
[28] | 0

C=CCn1c(=O)c2cnc(Nc3ccc(N4CCN(C)CC4)cc3)nc2n1-c1cccc(C(C)(C)O)n1 [MK1775] (max concentration tested 10000 nM)
percent inhibition of viability [%]
Conditions | 1 nM | 10 nM | 100 nM | 1000 nM | 10000 nM
DERL-7 (IL-2 2.5 ng/mL) [2] | 0.66 | 0.03 | 17.1 | 97.5 | 92.2
IMC-1 (IL-2 20 ng/mL) [3] | -5.81 | -5.29 | -4.21 | 96.3 | 99
KAI3 (IL-2 2.5 ng/mL) [4] | -0.83 | 7.57 | 45.7 | 91.1 | 90.4
KHYG-1 (IL-2 2.5 ng/mL) [5] | -2.16 | 1.16 | 78.7 | 102 | 98.7
NK-92 (IL-2 2.5 ng/mL) [6] | 4.45 | -1.85 | 53.5 | 98.9 | 97.4
NK-YS (IL-2 2.5 ng/mL) [7] | -5.73 | -7.13 | 10.9 | 92.7 | 94.9
NKL (IL-2 2.5 ng/mL) [8] | -16 | 4.83 | 68.4 | 94.3 | 64.4
SNK-6 (IL-2 2.5 ng/mL) [9] | -5.66 | -15.9 | 26.5 | 92.5 | 96.4
YT (IL-2 2.5 ng/mL) [10] | 1.53 | 1.29 | 16.2 | 98.3 | 98.1
[1] | -4.38 | -1.43 | 28.4 | 50.9 | 65.7
[11] | -14.7 | -12.2 | -5.81 | 9.3 | 42.5
[12] | -1.92 | -3.22 | 7.91 | 4.91 | -27.9
[13] | -15.1 | -7.74 | -2.34 | 4.19 | 34.3
[14] | -17.6 | -4.31 | -8.03 | 5.21 | 17.9

Conditions | drug sensitivity score
DERL-7 (IL-2 2.5 ng/mL) [16] | 20.4
IMC-1 (IL-2 20 ng/mL) [17] | 17.1
KAI3 (IL-2 2.5 ng/mL) [18] | 21.8
KHYG-1 (IL-2 2.5 ng/mL) [19] | 27.1
NK-92 (IL-2 2.5 ng/mL) [20] | 24.3
NK-YS (IL-2 2.5 ng/mL) [21] | 18.8
NKL (IL-2 2.5 ng/mL) [22] | 25.5
SNK-6 (IL-2 2.5 ng/mL) [23] | 21
YT (IL-2 2.5 ng/mL) [24] | 20.4
[15] | 13
[25] | 3.64
[26] | 0
[27] | 2.29
[28] | 1.01
